This note sets out measurements from publication PMC8881512 (Nature Communications, 2022).

Each structure is given as a SMILES string.

The target of assay [1] is T1, PRKX (Homo sapiens, UniProt P51817).
T1 construct: LATS1/LATS2 enzymes from Signalchem
Nature of the assay: Kinome profiling. The assay is classed as biochemical. The note with it: VT02956 (5 nM), read-out: % enzymatic activity relative to DMSO controls.

For assay [2], the target named is T2, BTK (Homo sapiens, UniProt Q06187).
T2 construct: LATS1/LATS2 enzymes from Signalchem
T2 sequence (Q06187 whole entry): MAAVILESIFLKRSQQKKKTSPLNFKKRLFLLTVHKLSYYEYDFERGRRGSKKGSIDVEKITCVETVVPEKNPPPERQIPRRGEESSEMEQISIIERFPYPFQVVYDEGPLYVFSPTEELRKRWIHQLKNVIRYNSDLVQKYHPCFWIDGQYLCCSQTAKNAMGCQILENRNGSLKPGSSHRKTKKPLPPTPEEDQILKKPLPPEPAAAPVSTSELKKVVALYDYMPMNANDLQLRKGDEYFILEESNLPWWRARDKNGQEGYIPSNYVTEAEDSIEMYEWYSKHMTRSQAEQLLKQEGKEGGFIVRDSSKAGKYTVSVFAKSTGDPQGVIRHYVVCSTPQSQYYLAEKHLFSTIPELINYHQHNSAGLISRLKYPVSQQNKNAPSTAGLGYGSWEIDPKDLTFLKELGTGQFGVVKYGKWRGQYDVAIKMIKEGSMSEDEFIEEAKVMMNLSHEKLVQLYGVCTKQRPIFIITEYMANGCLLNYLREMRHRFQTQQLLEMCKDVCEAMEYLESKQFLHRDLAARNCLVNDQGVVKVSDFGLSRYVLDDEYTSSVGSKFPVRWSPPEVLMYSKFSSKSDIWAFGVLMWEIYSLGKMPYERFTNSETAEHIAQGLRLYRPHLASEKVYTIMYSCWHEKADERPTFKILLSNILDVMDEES
In words: Kinome profiling. The format is biochemical. The following applies: VT02956 (5 nM).

T1 sequence (P51817 whole entry): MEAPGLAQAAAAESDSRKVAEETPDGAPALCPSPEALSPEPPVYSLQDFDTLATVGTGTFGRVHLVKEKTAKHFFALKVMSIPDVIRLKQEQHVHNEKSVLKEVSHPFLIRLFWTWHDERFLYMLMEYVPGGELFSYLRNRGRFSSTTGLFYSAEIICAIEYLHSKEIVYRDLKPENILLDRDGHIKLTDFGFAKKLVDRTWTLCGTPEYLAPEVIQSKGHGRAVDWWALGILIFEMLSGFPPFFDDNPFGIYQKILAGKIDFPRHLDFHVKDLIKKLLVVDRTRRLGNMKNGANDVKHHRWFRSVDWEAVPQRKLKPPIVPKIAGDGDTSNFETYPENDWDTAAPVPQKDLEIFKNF

For `NCC1CCN(c2nc(-c3ccncc3)nc3c(C#CCO)cccc23)CC1` [VT02956], the remaining activity at 0.005 µM in assay [1] is 3%. Also, the “% enzymatic activity relative to DMSO controls” value in assay [2] is on record as 83%.
